Reference: patent publication US20030212107A1, “R-reliprodil for treating glaucoma” (priority 2002, published 2003)
“Also recorded” adds a separate entry of the source.

Experiments:
hippocampal slices = experiment: Recovery of synaptic transmission after hypoxia in hippocampal slices in vitro; settings: for Recovery of excitatory post synaptic potentials following hypoxia (efficacy): comparable dose, 15 minute hypoxia, recovery assessed 60 minutes after reoxygenation
Experimental: Dose-Response Relations Comparing the Efficacy of Racemic (R/S)-Eliprodil (Open Circles), R-Eliprodil (Closed Circles) and Memantine (Closed Diamonds) for their Ability to Improve Recovery of Synaptic Transmission Following a 15 Minute Period of Hypoxia in Hippocampal Slices in vitro (FIG. 2). […] Briefly, hippocampal slices were prepared acutely the same day as the experiment, and each compound was bath applied 30 minutes prior to delivery of the 15 minute hypoxic insult. Recovery of evoked […] expressed as percent of the initial, pre-hypoxia epsp maximum slope, with this percent recovery assessed 60 minutes after reoxygenation.

[1] = test system: voltage operated calcium channels of the L, N and P type; experiment: Antagonism at voltage operated calcium channels
Excerpt: (§1) The role of these pharmacological activities in the neuroprotective efficacy has not been established for this drug.

[2] = cat, in vivo
Experimental: Eliprodil and its enantiomers were evaluated for their potential for prolonging QTc by determining their dose-related effects on cardiac electrical activity. Two different experimental models were utilized for these studies: (1) Action potential duration in piglet Purkinje fibers from the heart and (2) Electrocardiographic parameters in pentobarbital anesthetized cats.
Eliprodil and its two enantiomers were also evaluated for hemodynamic and electrocardiographic parameters in pentobarbital-anesthetized cats. […] Compounds were administered at increasing doses from 0.01 to 3 mg/kg as a five-minute intravenous infusion every 20 minutes.

[3] = test system: NMDA-induced firing rate of the lateral vestibular nucleus; experiment: NMDA-induced firing rate of the lateral vestibular nucleus in vivo
piglet Purkinje fibre = settings: for Concentration with statistically significant prolongation of APD90: pig
Experimental: Eliprodil and its two enantiomers induced concentration-dependent prolongation of the duration of the action potential of the piglet Purkinje fibre, particularly at the 0.25 Hz frequency. Based on action potential duration at 90% repolarization (APD90), statistically significant prolongation was evident at R(−) eliprodil concentrations of 100 nM and higher, but at S(+) eliprodil concentrations of 30 nM and higher. With high concentrations, APD90 decreased with both compounds.

[4] = test system: cultured rat retinal ganglion cells; experiment: Glutamate-induced rat retinal ganglion cell death; type: cell-based; settings: 10 nM for 30 minutes, then 100 μM glutamate; viable cells counted after 3 days; FIG. 1
Excerpt: Retinal ganglion cells were selected as they represent the retinal cell that degenerates in glaucoma. MK-801 was selected as a reference NMDA antagonist.
Isolation of rat retinal ganglion cells and assessment of viability in the absence and presence of glutamate was described in Pang, et al., “Protection by Eliprodil Against Excitotoxicity in Cultured Rat Retinal Ganglion Cells”, Investigative Ophthalmology & Visual Science, Vol. 40(6), pp. 1170-1176, May, 1999. Briefly, isolated cultured rat retinal ganglion cells were treated with racemic (R/S) eliprodil (10 nM), R-eliprodil (10 nM), or S-eliprodil (10 nM) for thirty (30) minutes followed by the addition of 100 μM glutamate. Survival was determined by counting viable cells after an incubation period of three (3) days. Survival with vehicle alone defines 100%. […] S-eliprodil was ineffective.

sodium channels = experiment: Antagonism at sodium channels
Excerpt: as §1

5-HT2A = 5-HT2A (Homo sapiens, UniProt P28223); experiment: Binding studies; settings: 5-HT2A binding site
Chain of 5-HT2A (P28223 whole entry, species assumed): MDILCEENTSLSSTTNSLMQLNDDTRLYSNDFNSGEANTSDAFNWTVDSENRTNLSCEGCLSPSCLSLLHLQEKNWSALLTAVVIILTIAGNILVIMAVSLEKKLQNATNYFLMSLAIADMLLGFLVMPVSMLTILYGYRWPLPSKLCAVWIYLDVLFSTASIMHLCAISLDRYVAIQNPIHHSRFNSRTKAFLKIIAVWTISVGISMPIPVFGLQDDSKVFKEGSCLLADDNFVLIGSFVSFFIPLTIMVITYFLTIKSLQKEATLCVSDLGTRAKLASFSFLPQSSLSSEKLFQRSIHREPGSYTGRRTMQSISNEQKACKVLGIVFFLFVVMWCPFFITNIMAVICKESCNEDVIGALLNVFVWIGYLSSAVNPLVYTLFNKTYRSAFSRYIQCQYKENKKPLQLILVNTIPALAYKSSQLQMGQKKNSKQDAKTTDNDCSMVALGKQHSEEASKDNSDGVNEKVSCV
Excerpt: as §1

5-HT7 = 5-HT7 (Homo sapiens, UniProt P34969); experiment: Binding studies; settings: 5-HT7 binding site
Chain of 5-HT7 (P34969 whole entry, species assumed): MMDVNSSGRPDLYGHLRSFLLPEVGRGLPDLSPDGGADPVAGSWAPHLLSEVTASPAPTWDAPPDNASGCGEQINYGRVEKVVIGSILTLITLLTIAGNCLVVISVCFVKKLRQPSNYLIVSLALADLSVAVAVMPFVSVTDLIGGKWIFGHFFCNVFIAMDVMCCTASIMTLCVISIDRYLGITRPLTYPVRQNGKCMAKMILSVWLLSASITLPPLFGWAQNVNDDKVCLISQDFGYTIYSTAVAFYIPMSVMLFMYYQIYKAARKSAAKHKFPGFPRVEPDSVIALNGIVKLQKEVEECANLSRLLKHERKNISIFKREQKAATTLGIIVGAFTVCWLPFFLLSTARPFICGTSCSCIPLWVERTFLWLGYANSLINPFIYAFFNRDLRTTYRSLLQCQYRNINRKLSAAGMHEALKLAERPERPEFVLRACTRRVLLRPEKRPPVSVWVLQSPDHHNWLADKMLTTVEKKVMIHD
Excerpt: as §1

β3-adrenergic = β3-adrenergic (Homo sapiens, UniProt P13945); experiment: Binding studies; settings: β3-adrenergic binding site
Chain of β3-adrenergic (P13945 whole entry): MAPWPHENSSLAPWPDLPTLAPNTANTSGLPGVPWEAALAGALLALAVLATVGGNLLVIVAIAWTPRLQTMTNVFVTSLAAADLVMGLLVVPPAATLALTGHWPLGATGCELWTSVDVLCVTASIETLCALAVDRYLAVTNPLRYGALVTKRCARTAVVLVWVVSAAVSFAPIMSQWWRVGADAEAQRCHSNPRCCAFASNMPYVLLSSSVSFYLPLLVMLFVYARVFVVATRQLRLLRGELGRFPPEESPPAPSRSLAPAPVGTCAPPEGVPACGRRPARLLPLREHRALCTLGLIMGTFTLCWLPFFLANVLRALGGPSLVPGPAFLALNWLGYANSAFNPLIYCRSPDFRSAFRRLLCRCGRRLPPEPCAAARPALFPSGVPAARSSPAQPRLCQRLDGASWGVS
Excerpt: as §1

5-HT1A = molecular target: T1, 5-HT1A (Homo sapiens, UniProt P08908); experiment: Binding studies; settings: 5-HT1A binding site
T1 sequence (P08908 1-422): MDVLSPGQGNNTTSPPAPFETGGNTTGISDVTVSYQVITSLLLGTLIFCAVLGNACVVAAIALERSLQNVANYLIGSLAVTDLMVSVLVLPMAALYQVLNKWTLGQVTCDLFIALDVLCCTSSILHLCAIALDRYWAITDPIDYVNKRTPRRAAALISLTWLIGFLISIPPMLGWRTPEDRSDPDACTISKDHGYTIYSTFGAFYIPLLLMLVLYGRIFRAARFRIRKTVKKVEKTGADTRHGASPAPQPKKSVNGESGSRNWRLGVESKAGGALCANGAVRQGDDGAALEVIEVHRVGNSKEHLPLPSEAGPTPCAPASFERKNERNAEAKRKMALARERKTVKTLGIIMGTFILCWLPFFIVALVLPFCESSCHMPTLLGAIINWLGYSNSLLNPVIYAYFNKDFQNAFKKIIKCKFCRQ
Excerpt: as §1

histamine H2 = histamine H2 (Homo sapiens, UniProt P25021); experiment: Binding studies; settings: histamine H2 binding site
Chain of histamine H2 (P25021 whole entry): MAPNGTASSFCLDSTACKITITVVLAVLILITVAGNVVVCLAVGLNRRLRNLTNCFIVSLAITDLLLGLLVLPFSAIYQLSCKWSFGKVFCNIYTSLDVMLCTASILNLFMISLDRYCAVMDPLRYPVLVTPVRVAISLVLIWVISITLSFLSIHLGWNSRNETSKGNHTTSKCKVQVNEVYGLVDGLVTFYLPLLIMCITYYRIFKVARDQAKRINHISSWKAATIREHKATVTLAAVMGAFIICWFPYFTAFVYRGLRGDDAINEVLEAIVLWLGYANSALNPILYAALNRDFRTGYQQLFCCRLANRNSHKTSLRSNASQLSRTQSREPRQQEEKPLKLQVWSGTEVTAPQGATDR
Excerpt: as §1

α1-adrenergic = experiment: Binding studies; settings: α1-adrenergic binding site
Excerpt: as §1

5-HT uptake = 5-HT uptake (Homo sapiens, UniProt P31645); experiment: Binding studies; settings: 5-HT uptake binding site
Chain of 5-HT uptake (P31645 whole entry): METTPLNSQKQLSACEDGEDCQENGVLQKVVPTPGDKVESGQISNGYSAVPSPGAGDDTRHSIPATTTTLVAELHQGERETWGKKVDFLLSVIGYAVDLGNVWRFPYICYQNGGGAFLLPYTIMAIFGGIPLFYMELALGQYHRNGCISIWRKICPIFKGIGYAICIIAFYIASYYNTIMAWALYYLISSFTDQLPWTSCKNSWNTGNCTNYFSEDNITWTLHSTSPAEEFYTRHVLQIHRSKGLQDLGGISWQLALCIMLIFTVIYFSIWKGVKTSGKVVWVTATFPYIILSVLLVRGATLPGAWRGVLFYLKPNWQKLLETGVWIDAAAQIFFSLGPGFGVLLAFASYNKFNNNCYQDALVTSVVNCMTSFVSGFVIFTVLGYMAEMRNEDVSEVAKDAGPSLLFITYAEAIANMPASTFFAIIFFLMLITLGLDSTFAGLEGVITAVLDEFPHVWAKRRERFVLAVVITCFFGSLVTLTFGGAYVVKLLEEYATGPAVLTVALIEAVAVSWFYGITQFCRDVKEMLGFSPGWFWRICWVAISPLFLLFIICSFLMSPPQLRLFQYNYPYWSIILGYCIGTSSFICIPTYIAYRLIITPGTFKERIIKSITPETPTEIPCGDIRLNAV
Excerpt: as §1

histamine H1 = histamine H1 (Homo sapiens, UniProt P35367); experiment: Binding studies; settings: histamine H1 binding site
Chain of histamine H1 (P35367 whole entry): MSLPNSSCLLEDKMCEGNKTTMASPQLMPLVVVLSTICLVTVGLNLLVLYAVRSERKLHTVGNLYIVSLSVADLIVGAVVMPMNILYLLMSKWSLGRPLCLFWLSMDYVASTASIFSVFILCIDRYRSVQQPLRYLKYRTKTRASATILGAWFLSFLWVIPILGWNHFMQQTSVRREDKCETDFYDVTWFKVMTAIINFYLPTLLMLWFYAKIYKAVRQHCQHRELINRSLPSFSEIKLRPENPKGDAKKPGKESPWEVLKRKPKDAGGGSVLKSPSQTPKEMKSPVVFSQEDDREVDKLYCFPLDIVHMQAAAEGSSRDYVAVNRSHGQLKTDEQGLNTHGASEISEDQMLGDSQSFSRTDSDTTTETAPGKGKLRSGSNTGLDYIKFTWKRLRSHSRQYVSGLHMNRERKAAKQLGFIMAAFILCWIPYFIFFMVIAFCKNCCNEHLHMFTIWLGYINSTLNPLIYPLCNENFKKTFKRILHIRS
Excerpt: as §1

[5] = following some doses in humans; cited from earlier work
NMDA receptor = NMDA receptor (Homo sapiens, UniProt Q05586+Q13224); experiment: biochemical
Chain of NMDA receptor (Q13224 27-1484, other chains not shown): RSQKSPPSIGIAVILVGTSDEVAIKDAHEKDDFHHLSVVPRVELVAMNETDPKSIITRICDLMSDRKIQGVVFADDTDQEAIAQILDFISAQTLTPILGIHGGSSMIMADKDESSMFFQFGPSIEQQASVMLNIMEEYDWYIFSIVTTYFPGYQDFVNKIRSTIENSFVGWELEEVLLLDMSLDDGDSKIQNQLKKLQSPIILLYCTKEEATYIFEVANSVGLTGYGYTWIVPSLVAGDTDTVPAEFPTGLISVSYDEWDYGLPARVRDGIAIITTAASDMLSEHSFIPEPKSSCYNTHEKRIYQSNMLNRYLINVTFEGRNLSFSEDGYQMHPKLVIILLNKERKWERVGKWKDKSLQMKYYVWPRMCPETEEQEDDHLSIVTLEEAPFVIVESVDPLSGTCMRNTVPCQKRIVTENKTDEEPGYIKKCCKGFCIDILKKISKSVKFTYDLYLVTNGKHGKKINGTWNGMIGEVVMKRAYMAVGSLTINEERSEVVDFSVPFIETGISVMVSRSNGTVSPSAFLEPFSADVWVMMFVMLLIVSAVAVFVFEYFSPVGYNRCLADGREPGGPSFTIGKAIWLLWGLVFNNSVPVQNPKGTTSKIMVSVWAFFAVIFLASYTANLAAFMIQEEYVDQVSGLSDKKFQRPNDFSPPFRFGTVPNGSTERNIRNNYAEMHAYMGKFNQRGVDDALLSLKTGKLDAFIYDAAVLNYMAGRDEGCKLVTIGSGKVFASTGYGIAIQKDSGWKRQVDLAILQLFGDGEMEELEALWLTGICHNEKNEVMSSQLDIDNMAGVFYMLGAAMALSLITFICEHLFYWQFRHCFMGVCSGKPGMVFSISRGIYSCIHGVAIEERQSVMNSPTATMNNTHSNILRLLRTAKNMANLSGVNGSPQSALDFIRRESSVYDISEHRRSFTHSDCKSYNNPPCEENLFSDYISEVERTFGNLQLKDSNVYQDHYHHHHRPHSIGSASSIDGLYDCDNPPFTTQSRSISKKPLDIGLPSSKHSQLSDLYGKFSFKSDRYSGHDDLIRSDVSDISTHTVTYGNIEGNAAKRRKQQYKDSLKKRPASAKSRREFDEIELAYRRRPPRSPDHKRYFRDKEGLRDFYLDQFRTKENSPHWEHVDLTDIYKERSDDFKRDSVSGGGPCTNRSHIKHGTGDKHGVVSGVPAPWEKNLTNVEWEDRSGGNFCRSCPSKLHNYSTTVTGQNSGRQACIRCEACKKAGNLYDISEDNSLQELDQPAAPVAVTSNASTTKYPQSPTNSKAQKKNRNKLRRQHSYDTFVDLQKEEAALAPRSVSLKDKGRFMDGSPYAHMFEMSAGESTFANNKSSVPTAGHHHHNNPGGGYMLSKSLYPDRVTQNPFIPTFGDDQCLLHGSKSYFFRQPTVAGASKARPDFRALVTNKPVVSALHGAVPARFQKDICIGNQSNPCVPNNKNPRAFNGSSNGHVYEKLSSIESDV

Ki (NMDA receptor) | Concentration with statistically significant prolongation of APD90 (piglet Purkinje fibre) | SMILES | Recovery of excitatory post synaptic potentials following hypoxia (efficacy) (hippocampal slices) | Threshold Dose, Heart Rate Decrease [2] | Threshold Dose, Mean Blood Pressure Decrease [2] | Threshold Dose, QTc Prolongation [2] | Inhibition of NMDA-induced firing rate of the lateral vestibular nucleus [3] | Maximum effect on APD90 (piglet Purkinje fibre) | Neuroprotective effect on glutamate-induced retinal ganglion cell death (survival) [4] | also measured
 |  | OC(CN1CCC(Cc2ccc(F)cc2)CC1)c1ccc(Cl)cc1 (racemic) [Eliprodil] | less effective | 0.1 mg/kg | 1.0 mg/kg | 0.03 mg/kg | strongly inhibit | equal to that of S(+) eliprodil | marked neuroprotective activity | Antagonism at voltage operated calcium channels [1]: shows antagonism; Effect on APD90 at low concentrations (piglet Purkinje fibre): intermediate between the two enantiomers; Antagonism at sodium channels (sodium channels): shows antagonism; Affinity (5-HT2A): sub-micromolar; Affinity (5-HT7): sub-micromolar; Affinity (β3-adrenergic): sub-micromolar; Affinity (5-HT1A): sub-micromolar; Affinity (histamine H2): sub-micromolar; Affinity (α1-adrenergic): sub-micromolar; Affinity (5-HT uptake): sub-micromolar; Affinity (histamine H1): sub-micromolar; QTc prolongation [5]: asymptomatic QTc prolongation
0.2 µM | ≥ 100 nM | O[C@@H](CN1CCC(Cc2ccc(F)cc2)CC1)c1ccc(Cl)cc1 [R-eliprodil, R-α-(4-chlorophenyl)-4-(4-fluorophenylmethyl)-1-peperidineethanol] | substantial recovery; also recorded: more efficacious than either racemic or S-eliprodil | 0.3 mg/kg | 1.0 mg/kg | 0.1 mg/kg | strongly inhibit | less than is that seen with S(+) eliprodil | marked neuroprotective activity; also recorded: as efficacious as a protectant as racemic eliprodil | Potency (EC50) for recovery of synaptic transmission, compared with racemic-eliprodil or memantine (hippocampal slices; p<0.05, Student's t-test, FIG. 2): statistically significantly more potent; Plasma level ([2]; iv, 0.1 mg/kg): 34.9 ± 2.8 ng/mL
10 µM | ≥ 30 nM | O[C@H](CN1CCC(Cc2ccc(F)cc2)CC1)c1ccc(Cl)cc1 [S-eliprodil] | less effective | 0.1 mg/kg | 1.0 mg/kg | 0.01 mg/kg | almost inactive at the highest dose tested |  | ineffective | 
